Where a SMILES comes first, the peptide text is derived from it. The star is where a group is joined. Myristoyl = CCCCCCCCCCCCCC(=O)*
Tests used:
MDA-MB-231 cells = format: cell-based, human; details: 50 μM peptide, 48 hours, n = 1
Text: (§1) Non-adherent cells were removed during the washing steps.

[1] = system: CD44^hiCD24^lo CSCs in MDA-MB-231 cells; assay: FACS analysis of CD44^hiCD24^lo cancer stem cells in MDA-MB-231 cells treated with P1 analogues; format: cell-based, human; details: 50 μM peptide, 48 hours; for CD44^hiCD24^lo CSCs (%) / COI, Live Single CD44^hiCD24^lo CSCs (Cell Count): n = 1; for Average Inhibition of CSCs (%) / CD44^hiCD24^lo CSCs (%) Repeat 1 / CD44^hiCD24^lo CSCs (%) Repeat 2 / CD44^hiCD24^lo CSCs (%) Repeat 3: n = 3
Protocol: Analogues of P1 (Table 6) were designed and synthesized in accordance with the procedure of Example 5. The ability of these analogues to inhibit cancer stem cells was determined using FACS analysis on MDA-MB-231 cells, which constitutively contain approximately 90% CD44^hiCD24^lo cancer stem cells, treated with the peptides.
as §1
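Throughout, for COI, Live Single Cells (Cell Count): live means Hoechst-negative events among single cells.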

Row | Compound | COI (Cell Count) (MDA-MB-231 cells) | COI, Live Single Cells (Cell Count) (MDA-MB-231 cells) | COI, Single (Cell Count) (MDA-MB-231 cells) | Total Cell Count (MDA-MB-231 cells) | Inhibition of CSCs (%) Repeat 1 [1] [%] | Inhibition of CSCs (%) Repeat 2 [1] [%] | Inhibition of CSCs (%) Repeat 3 [1] [%] | CD44^hiCD24^lo CSCs (%) [1] [%] | COI, Live Single CD44^hiCD24^lo CSCs (Cell Count) [1] | Average Inhibition of CSCs (%) [1] [%] | CD44^hiCD24^lo CSCs (%) Repeat 1 [1] [%] | CD44^hiCD24^lo CSCs (%) Repeat 2 [1] [%] | CD44^hiCD24^lo CSCs (%) Repeat 3 [1] [%]
1 | CCCCCCCCCCCCCC(=O)N[C@H](C(=O)N[C@@H](Cc1ccccc1)C(=O)N[C@H](C(=O)N[C@@H](Cc1ccccc1)C(=O)N[C@@H](CCCNC(=N)N)C(=O)N[C@@H](CC(C)C)C(=O)N[C@@H](C)C(=O)N[C@@H](CCCCN)C(=O)NCC(=O)N[C@@H](CCCNC(=N)N)C(=O)N[C@@H](CCSC)C(=O)N[C@@H](CCSC)C(=O)N[C@@H](CC(=O)O)C(=O)N[C@H](C(=O)N[C@@H](CCCCN)C(=O)N[C@@H](CCCCN)C(N)=O)C(C)C)[C@@H](C)CC)[C@@H](C)O [Peptide 2815308, Myristoyl-TFIFRLAKGRMMDVKK-NH2] (Myristoyl-TFIFRLAKGRMMDVKK-NH2) | 340 | 163 | 301 | 9921 | 51.70 | 45.08 | 50.47 | 54.60 | 89 | 49.08 | 43.29 | 49.27 | 44.44
2 | CCCCCCCCCCCCCC(=O)N[C@H](C(=O)N[C@@H](Cc1ccccc1)C(=O)N[C@H](C(=O)N[C@@H](Cc1ccccc1)C(=O)N[C@@H](CCCNC(=N)N)C(=O)N[C@@H](CC(C)C)C(=O)N[C@@H](CCCNC(=N)N)C(=O)N[C@@H](CCCCN)C(=O)N[C@@H](C)C(=O)N[C@@H](CCCNC(=N)N)C(=O)N[C@@H](CCSC)C(=O)N[C@@H](CCSC)C(=O)N[C@@H](CC(=O)O)C(=O)N[C@H](C(=O)N[C@@H](CCCCN)C(=O)N[C@@H](CCCCN)C(N)=O)C(C)C)[C@@H](C)CC)[C@@H](C)O [Peptide 2815310, Myristoyl-TFIFRLRKARMMDVKK-NH2] (Myristoyl-TFIFRLRKARMMDVKK-NH2) | 18 | 7 | 16 | 8883 | 38.81 | 39.40 | 41.35 | 57.14 | 4 | 39.85 | 54.84 | 54.37 | 52.63
3 | CCCCCCCCCCCCCC(=O)N[C@H](C(=O)N[C@@H](Cc1ccccc1)C(=O)N[C@H](C(=O)N[C@@H](Cc1ccccc1)C(=O)N[C@@H](CCCNC(=N)N)C(=O)N[C@@H](CC(C)C)C(=O)N[C@@H](CCCNC(=N)N)C(=O)N[C@@H](CCCCN)C(=O)NCC(=O)N[C@@H](CCCNC(=N)N)C(=O)N[C@@H](CCSC)C(=O)N[C@@H](C)C(=O)N[C@@H](CC(=O)O)C(=O)N[C@H](C(=O)N[C@@H](CCCCN)C(=O)N[C@@H](CCCCN)C(N)=O)C(C)C)[C@@H](C)CC)[C@@H](C)O [Peptide 2815313, Myristoyl-TFIFRLRKGRMADVKK-NH2] (Myristoyl-TFIFRLRKGRMADVKK-NH2) | 165 | 130 | 148 | 8909 | 22.34 | 23.02 | 27.96 | 61.54 | 80 | 24.44 | 69.60 | 69.06 | 64.65
4 | CCCCCCCCCCCCCC(=O)N[C@H](C(=O)N[C@@H](Cc1ccccc1)C(=O)N[C@H](C(=O)N[C@@H](Cc1ccccc1)C(=O)N[C@@H](CCCNC(=N)N)C(=O)N[C@@H](CC(C)C)C(=O)N[C@@H](CCCNC(=N)N)C(=O)N[C@@H](CCCCN)C(=O)NCC(=O)N[C@@H](CCCNC(=N)N)C(=O)N[C@@H](CCSC)C(=O)N[C@@H](CCSC)C(=O)N[C@@H](CC(=O)O)C(=O)N[C@@H](C)C(=O)N[C@@H](CCCCN)C(=O)N[C@@H](CCCCN)C(N)=O)[C@@H](C)CC)[C@@H](C)O [Peptide 2815315, Myristoyl-TFIFRLRKGRMMDAKK-NH2] (Myristoyl-TFIFRLRKGRMMDAKK-NH2) | 51 | 16 | 41 | 12122 | 86.74 | 82.99 | 83.97 | 18.75 | 3 | 84.57 | 11.89 | 15.26 | 14.39
5 | CCCCCCCCCCCCCC(=O)N[C@H](C(=O)N[C@@H](Cc1ccccc1)C(=O)N[C@H](C(=O)N[C@@H](Cc1ccccc1)C(=O)N[C@@H](CCCNC(=N)N)C(=O)N[C@@H](CC(C)C)C(=O)N[C@@H](CCCNC(=N)N)C(=O)N[C@@H](CCCCN)C(=O)NCC(=O)N[C@@H](CCCNC(=N)N)C(=O)N[C@@H](CCSC)C(=O)N[C@@H](CCSC)C(=O)N[C@@H](CC(=O)O)C(=O)N[C@H](C(=O)N[C@@H](C)C(=O)N[C@@H](CCCCN)C(N)=O)C(C)C)[C@@H](C)CC)[C@@H](C)O [Peptide 2815316, Myristoyl-TFIFRLRKGRMMDVAK-NH2] (Myristoyl-TFIFRLRKGRMMDVAK-NH2) | 22 | 4 | 20 | 10777 | 40.88 | 45.01 | 45.00 | 50.00 | 2 | 43.63 | 52.99 | 49.33 | 49.35
6 | CCCCCCCCCCCCCC(=O)N[C@H](C(=O)N[C@@H](Cc1ccccc1)C(=O)N[C@H](C(=O)N[C@@H](Cc1ccccc1)C(=O)N[C@@H](CCCNC(=N)N)C(=O)N[C@@H](CC(C)C)C(=O)N[C@@H](CCCNC(=N)N)C(=O)N[C@@H](CCCCN)C(=O)NCC(=O)N[C@@H](CCCNC(=N)N)C(=O)N[C@@H](CCSC)C(=O)N[C@@H](CCSC)C(=O)N[C@@H](CC(=O)O)C(=O)N[C@H](C(=O)N[C@@H](CCCCN)C(=O)N[C@@H](C)C(N)=O)C(C)C)[C@@H](C)CC)[C@@H](C)O [Peptide 2815317, Myristoyl-TFIFRLRKGRMMDVKA-NH2] (Myristoyl-TFIFRLRKGRMMDVKA-NH2) | 88 | 44 | 79 | 8821 | 47.53 | 46.46 | 63.38 | 40.91 | 18 | 52.46 | 47.02 | 48.03 | 32.86
7 | CCCCCCCCCCCCCC(=O)N[C@H](C(=O)N[C@@H](Cc1ccccc1)C(=O)N[C@H](C(=O)N[C@@H](Cc1ccccc1)C(=O)N[C@@H](CCCNC(=N)N)C(=O)N[C@@H](CC(C)C)C(=O)N[C@@H](CCCNC(=N)N)C(=O)N[C@@H](CCCCN)C(=O)NCC(=O)N[C@@H](C)C(=O)N[C@@H](CCSC)C(=O)N[C@@H](CCSC)C(=O)N[C@@H](CC(=O)O)C(=O)N[C@H](C(=O)N[C@@H](CCCCN)C(=O)N[C@@H](CCCCN)C(N)=O)C(C)C)[C@@H](C)CC)[C@@H](C)O [Peptide 2815318, Myristoyl-TFIFRLRKGAMMDVKK-NH2] (Myristoyl-TFIFRLRKGAMMDVKK-NH2) | 183 | 132 | 142 | 3480 | 54.80 | 54.73 | 55.59 | 53.03 | 70 | 55.04 | 40.51 | 40.61 | 39.86
8 | CCCCCCCCCCCCCC(=O)N[C@@H](C)C(=O)N[C@H](C(=O)N[C@@H](Cc1ccccc1)C(=O)N[C@H](C(=O)N[C@@H](Cc1ccccc1)C(=O)N[C@@H](CCCNC(=N)N)C(=O)N[C@@H](CC(C)C)C(=O)N[C@@H](CCCNC(=N)N)C(=O)N[C@@H](CCCCN)C(=O)NCC(=O)N[C@@H](CCCNC(=N)N)C(=O)N[C@@H](CCSC)C(=O)N[C@@H](CCSC)C(=O)N[C@@H](CC(=O)O)C(=O)N[C@H](C(=O)N[C@@H](CCCCN)C(=O)N[C@@H](CCCCN)C(N)=O)C(C)C)[C@@H](C)CC)[C@@H](C)O [Peptide 2853801, Myristoyl-ATFIFRLRKGRMMDVKK-NH2] (Myristoyl-ATFIFRLRKGRMMDVKK-NH2) | 2375 | 1894 | 2024 | 8558 | 93.01 | 94.77 | 94.78 | 5.39 | 102 | 94.19 | 6.27 | 4.69 | 4.68

Source: patent US20200339691A1, “PROTEINACEOUS MOLECULES AND USES THEREFOR” (priority 2018, published 2020)
